According to ChEMBL document CHEMBL1201862, “PubChem BioAssay data set” (2004):
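In this assay, cells in 96-well plates receive the compound at five concentrations for 48 hours. Endpoints are linearly interpolated between the surrounding concentrations. Here, GI50 denotes the concentration required for 50% inhibition of growth.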 Activity calls are given as the source filed them. Rule as the data show it: active = GI50 up to about 1.1 µM and inactive = higher.

Key:
Experiment in all cases: NCI anticancer screen, dose series, 48 h
SK-MEL-2 = tested on: SK-MEL-2
HL-60 = tested on: HL-60
SF-295 = tested on: SF-295
K562 = tested on: K562
T47D = tested on: T47D
Hs-578T = tested on: Hs-578T
SW-620 = tested on: SW-620
UO-31 = tested on: UO-31
ACHN = tested on: ACHN
MDA-MB-231 = tested on: MDA-MB-231
NCI-H522 = tested on: NCI-H522
NCI-H460 = tested on: NCI-H460
HCT-15 = tested on: HCT-15
UACC-257 = tested on: UACC-257
U-251 = tested on: U-251
MDA-MB-435 = tested on: MDA-MB-435
SF-539 = tested on: SF-539
CCRF-CEM = tested on: CCRF-CEM
CAKI-1 = tested on: CAKI-1
HOP-92 = tested on: HOP-92

Row | Compound | GI50 (SK-MEL-2) | GI50 (HL-60) | GI50 (SF-295) | GI50 (K562) | GI50 (T47D) | GI50 (Hs-578T) | GI50 (SW-620) | GI50 (UO-31) | GI50 (ACHN) | GI50 (MDA-MB-231) | GI50 (NCI-H522) | GI50 (NCI-H460) | GI50 (HCT-15) [µM] | GI50 (UACC-257) | GI50 (U-251) | GI50 (MDA-MB-435) | GI50 (SF-539) | GI50 (CCRF-CEM) | GI50 (CAKI-1) | GI50 (HOP-92)
1 | O=C1OC(c2ccccc2)=N/C1=C\c1ccc(N(CCCl)CCCl)cc1 | > 27.2 µM (inactive) | 45.4 µM (inactive) | > 100 µM (inactive) | 16.5 µM (inactive) | 14.5 µM (inactive) | > 100 µM (inactive) | > 100 µM (inactive) | > 78.3 µM (inactive) | > 62.5 µM (inactive) | > 100 µM (inactive) | 21.3 µM (inactive) | > 77.4 µM (inactive) | > 100 | > 100 µM (inactive) | > 100 µM (inactive) | > 100 µM (inactive) | > 100 µM (inactive) | 26 µM (inactive) | > 100 µM (inactive) | > 52.5 µM (inactive)
2 | CCN(CC)CCSc1c(C(C)=O)c(=O)n(-c2ccccc2)c(=S)n1-c1ccccc1 | 15.5 µM (inactive) | 2.52 µM (inactive) | > 78 µM (inactive) | 3.09 µM (inactive) | 2.58 µM (inactive) | 23.4 µM (inactive) | 2.25 µM (inactive) | 1.96 µM (inactive) | 3.77 µM (inactive) | 13.1 µM (inactive) | 2.21 µM (inactive) | 21.1 µM (inactive) | 2.8 | 9.98 µM (inactive) | 17.7 µM (inactive) | 6.17 µM (inactive) | 2.4 µM (inactive) | 0.571 µM (active) | 10.2 µM (inactive) | 1.9 µM (inactive)
3 | CCOC(=O)C1OC(C2(C)OC3(OC4(C=CC3O)OC(C(C)C(=O)C(C)C(O)C(C)CC(C)c3c(Cl)cc(C)c(O)c3C(=O)O)C(C)CC4C)C(C)C2OC)CC1O (stereo not given) | 0.493 µM (active) | 0.542 µM (active) | 0.257 µM (active) | 0.505 µM (active) | 0.955 µM (active) | 0.982 µM (active) | 0.251 µM (active) | 1.18 µM (inactive) | 0.441 µM (active) | 1.15 µM (inactive) | < 0.0803 µM (active) | 0.0826 µM (active) | 0.453 | 0.577 µM (active) | 0.189 µM (active) | 0.286 µM (active) | 0.65 µM (active) | 0.0828 µM (active) | 0.752 µM (active) | 2.13 µM (inactive)
4 | N#CC1(C2SCC[S+]2[O-])C2=C(C(=O)c3ccccc3C2=O)N2CCCC21 (stereo not given) | 1.69 µM (inactive) | 1.55 µM (inactive) | 1.99 µM (inactive) | 3.38 µM (inactive) | 3.3 µM (inactive) | 3.46 µM (inactive) | 2.13 µM (inactive) | 4.68 µM (inactive) | 5.52 µM (inactive) | 2.17 µM (inactive) | 2.11 µM (inactive) | 2.32 µM (inactive) | 2.21 | 1.36 µM (inactive) | 3.4 µM (inactive) | 0.497 µM (active) | 3 µM (inactive) | 2.94 µM (inactive) | 4.42 µM (inactive) | 3.85 µM (inactive)
5 | O=C(c1ccc(Cl)cc1)N(Cc1cccnc1)C(=S)N(Cc1cccnc1)C(=O)c1ccc(Cl)cc1 | 23 µM (inactive) | 33.2 µM (inactive) | 43.3 µM (inactive) | 22.9 µM (inactive) | 57.4 µM (inactive) | 48.4 µM (inactive) | 40.5 µM (inactive) | 34.2 µM (inactive) | 36.1 µM (inactive) | 26.5 µM (inactive) | 24.2 µM (inactive) | 44.2 µM (inactive) | 33.9 | 33.6 µM (inactive) | 22.7 µM (inactive) | 40.2 µM (inactive) | 23 µM (inactive) | 50 µM (inactive) | 42.4 µM (inactive) | 34 µM (inactive)
6 | Clc1ccc(-c2nnc(-c3cccc4ccccc34)o2)cc1Cl | > 100 µM (inactive) | 1.03 µM (active) | > 100 µM (inactive) | > 100 µM (inactive) | > 100 µM (inactive) | > 100 µM (inactive) | > 100 µM (inactive) | > 100 µM (inactive) | > 100 µM (inactive) | > 100 µM (inactive) | > 100 µM (inactive) | > 100 µM (inactive) | > 100 | > 100 µM (inactive) | > 100 µM (inactive) | > 100 µM (inactive) | > 100 µM (inactive) | > 100 µM (inactive) | > 100 µM (inactive) | 17.6 µM (inactive)
7 | CCCCCCCCCCCCCCCCSS(C)(=O)=O | 5.81 µM (inactive) | 4.07 µM (inactive) | > 100 µM (inactive) | 9.64 µM (inactive) | 8.97 µM (inactive) | > 100 µM (inactive) | 5.21 µM (inactive) | 20.8 µM (inactive) | 13.4 µM (inactive) | > 100 µM (inactive) | 4.48 µM (inactive) | > 61.2 µM (inactive) | 11 | 42.2 µM (inactive) | 55 µM (inactive) | > 100 µM (inactive) | 17.9 µM (inactive) | 3.03 µM (inactive) | 10.1 µM (inactive) | 15.5 µM (inactive)
8 | FC(F)(F)c1ccc2c(-c3cc[nH]c3)ccnc2c1 | > 100 µM (inactive) | 16.7 µM (inactive) | 30 µM (inactive) | 30 µM (inactive) | > 100 µM (inactive) | 23.9 µM (inactive) | 36.1 µM (inactive) | 20.9 µM (inactive) | 31.8 µM (inactive) | 40.1 µM (inactive) | 32.4 µM (inactive) | 33.7 µM (inactive) | > 100 | 31.4 µM (inactive) | 44.3 µM (inactive) | 35 µM (inactive) | 37.8 µM (inactive) | 32.6 µM (inactive) | 31.4 µM (inactive) | 52.4 µM (inactive)
9 | CCCCCCCCC/C=C/C=C/C(=O)NCC(=O)NC1C(O)C(O)C(Nc2ncnc3[nH]cnc23)OC1C(O)CO (stereo not given) | 0.0056 µM (active) | 0.00159 µM (active) | 0.00796 µM (active) | 0.063 µM (active) | 0.169 µM (active) | 0.00432 µM (active) | 0.00156 µM (active) | 0.00196 µM (active) | 0.00953 µM (active) | 0.0538 µM (active) | 0.00532 µM (active) | 0.00189 µM (active) | 0.362 | 0.00444 µM (active) | 0.00149 µM (active) | 0.0255 µM (active) | 0.00448 µM (active) | 2.39 µM (inactive) | 0.00692 µM (active) | 0.00468 µM (active)
10 | CCCCc1ccc(Nc2nc3c(ncn3C3OC(COC(C)=O)C(OC(C)=O)C3OC(C)=O)c(=O)[nH]2)cc1 (stereo not given) | 15.7 µM (inactive) | 26.2 µM (inactive) | 21.2 µM (inactive) | 15.1 µM (inactive) | 13.7 µM (inactive) | 22.9 µM (inactive) | 25.1 µM (inactive) | > 100 µM (inactive) | 65 µM (inactive) | 16.7 µM (inactive) | 18 µM (inactive) | 18.3 µM (inactive) | > 100 | 18.9 µM (inactive) | 21 µM (inactive) | 19.9 µM (inactive) | 26.2 µM (inactive) | 16.3 µM (inactive) | > 100 µM (inactive) | 16.1 µM (inactive)
11 | CCCC(=O)NC(Nc1ccc(S(=O)(=O)Nc2nc(C)cc(C)n2)cc1)(C(F)(F)F)C(F)(F)F | > 100 µM (inactive) | > 100 µM (inactive) | > 100 µM (inactive) | > 100 µM (inactive) | > 100 µM (inactive) | > 100 µM (inactive) | > 100 µM (inactive) | > 100 µM (inactive) | > 100 µM (inactive) | > 100 µM (inactive) | > 100 µM (inactive) | > 100 µM (inactive) | > 100 | > 100 µM (inactive) | > 100 µM (inactive) | > 100 µM (inactive) | > 100 µM (inactive) | > 100 µM (inactive) | > 100 µM (inactive) | > 100 µM (inactive)
12 | CN(C)CCN1C(=O)CC[C@@]2(C)C1=CC[C@@H]1[C@@H]2CC[C@@]2(C)[C@H]1CC[C@]2(C)O | > 100 µM (inactive) | > 100 µM (inactive) | > 100 µM (inactive) | > 100 µM (inactive) | > 100 µM (inactive) | > 100 µM (inactive) | > 100 µM (inactive) | > 100 µM (inactive) | > 100 µM (inactive) | > 100 µM (inactive) | > 100 µM (inactive) | > 100 µM (inactive) | > 100 | > 100 µM (inactive) | > 100 µM (inactive) | > 100 µM (inactive) | > 100 µM (inactive) | > 100 µM (inactive) | > 100 µM (inactive) | > 100 µM (inactive)
13 | C=C1CC2(CC(c3ccccc3C)OC(c3ccccc3C)C2)OC1=O (stereo not given) | 2 µM (inactive) | 1.6 µM (inactive) | 15.8 µM (inactive) | 2.15 µM (inactive) | 1.72 µM (inactive) | 2.24 µM (inactive) | 1.73 µM (inactive) | 4.08 µM (inactive) | 2.36 µM (inactive) | 1.6 µM (inactive) | 1.73 µM (inactive) | 2.96 µM (inactive) | 1.95 | 1.78 µM (inactive) | 12.9 µM (inactive) | 1.71 µM (inactive) | 1.62 µM (inactive) | 2.04 µM (inactive) | 1.87 µM (inactive) | 1.76 µM (inactive)
14 | COc1cc(OC)cc(Oc2nc3ccccc3nc2C(F)(F)F)c1 | 48.6 µM (inactive) | 22.3 µM (inactive) | 28.8 µM (inactive) | 9.25 µM (inactive) | > 100 µM (inactive) | 72.1 µM (inactive) | 20.4 µM (inactive) | > 100 µM (inactive) | > 100 µM (inactive) | 14.7 µM (inactive) | > 100 µM (inactive) | > 100 µM (inactive) | 51.4 | > 100 µM (inactive) | 27.2 µM (inactive) | 3.41 µM (inactive) | 52.5 µM (inactive) | 0.986 µM (active) | > 100 µM (inactive) | 42 µM (inactive)
